Source: patent US4209521A, “Anti-depressant indole derivatives” (John Wyeth & Brother Limited, priority 1977, dated 1980)
Entries after “also recorded” stand apart in the source; their conditions may differ.

Experiments:
[1] = system: post-synaptic 5HT receptor; test: 5HT Antagonism in Vitro (isolated rat ileum); type: cell-based
[2] = system: uptake of 5-hydroxytryptamine in slices of cerebral cortex; test: Inhibition of 5-hydroxytryptamine uptake in brain slices; type: cell-based, rat; conditions: for Potency Ratio (imipramine = 1.0) 5-Hydroxytryptamine: inhibition of 5-hydroxytryptamine uptake, rat cerebral cortex slices, relative to imipramine = 1.0; for Inhibition of 5-hydroxytryptamine uptake (in words): qualitative
Method: The effects of test compounds on the neuronal uptake of noradrenaline into slices of cerebral cortex prepared from rat brain is determined according to the method described by Snyder, Green and Hendley, Kinetics of H^3 -norepihephrine accumulation into slices from different regions of the rat brain (J. Pharm. exp. Therap. 164: 90-102) (1968). The effects of test compounds on the uptake of 5-hydroxytryptamine is obtained in a similar manner except that H^3 5-hydroxytryptamine is used in place of H^3 noradrenaline. Concentration-response curves are obtained both for the test compound and for the standard agent, imipramine. The potency of each test compound is expressed in proportion to that of imipramine. Thus, the potency ratio for the test compound= [formula]

mice = test: Motor Activity (Exploratory behaviour in mice); type: in vivo, mouse; conditions: i.p., qualitative
Method: The test compounds were administered i.p. to mice (3 groups of 4 per dose) at time 0. Seventy minutes later the animals were transferred to square boxes placed beneath the detector heads of Aktograph activity monitors. The exploratory activity of the mice was counted over the following 20 minute period.

mice (CF-1) = test: CNS Activity (Effect on Behaviour of Mice); type: in vivo, mouse (CF-1)
Method: The test compounds are administered orally to three mice (CF-1 14 to 24 grams) at each of the following doses: 400, 127, 40 and 12.7 mg/kg. The animals are watched for two hours during which time signs of general stimulation (i.e. increased spontaneous motor activity, hyperactivity on tactile stimulation, twitching), general depression (i.e. decreased spontaneous motor activity, decreased respiration) and autonomic activity (i.e. miosis, mydriasis, diarrhoea) are noted.

hypertensive rats [3] = test: Anti-hypertensive activity in deoxycorticosterone acetate hypertensive rats; type: in vivo, rat; conditions: for Reduction of blood pressure (in words): hypertensive rats, p.o., qualitative
Method: Female rats are rendered hypertensive by unilateral nephrectomy and the s.c. implantation of a pellet containing 30 mg of deoxycorticosterone acetate. The drinking water is replaced by normale saline ad lib for the first four weeks following preparation. Blood pressure stabilise at a hypertensive level after 6 weeks. Systolic pressure is measured indirectly before dosing with a test compound using an E and M pneumatic pulse transducer and a Devices MX2 recorder. Groups of 4 rats are dosed orally with suspensions or solutions of the test compound in 0.5% hydroxypropyl-methyl-cellulose 0.9% saline vehicle. Blood pressures are recorded again at 2, 6 and 24 hours and the results, expressed as a percentage of the pre-dose values compared with those of a similar group of rats receiving vehicle alone.

[4] = system: neuronal uptake of noradrenaline into slices of cerebral cortex; test: Inhibition of noradrenaline uptake in brain slices; type: cell-based, rat; conditions: for Potency Ratio (imipramine = 1.0) Noradrenaline: inhibition of noradrenaline uptake, rat cerebral cortex slices, relative to imipramine = 1.0; for Inhibition of noradrenaline uptake (in words): qualitative
Text: Concentration-response curves are obtained both for the test compound and for the standard agent, imipramine. The potency of each test compound is expressed in proportion to that of imipramine. Thus, the potency ratio for the test compound= [formula]

hypertensive rats [5] = test: Another procedure for determining anti-hypertensive activity in hypertensive rats; type: in vivo, rat; conditions: qualitative
[6] = 50 mg/kg p.o., 2 hr after dosing
[7] = 50 mg/kg p.o., 6 hr after dosing
[8] = 50 mg/kg p.o., 24 hr after dosing
[9] = mice, oral, watched for two hours
[10] = 10 mg/kg p.o., 2 hr after dosing
[11] = 10 mg/kg p.o., 6 hr after dosing
[12] = 10 mg/kg p.o., 24 hr after dosing
[13] = 25 mg/kg p.o., 2 hr after dosing
[14] = 25 mg/kg p.o., 6 hr after dosing
[15] = 25 mg/kg p.o., 24 hr after dosing

O=C(NC(=O)c1ccccc1)NC1CCN(Cc2c[nH]c3ccccc23)CC1 [Compound I, 1-[1-(indol-3-ylmethyl)piperid-4-yl]-3-benzoyl urea]
5HT antagonism: effect on responses of isolated rat ileum to 5-hydroxytryptamine ([1]; 10^-6 M, isolated rat ileum): the responses to the subsequent administration of 5HT were not affected | Direct effect on the isolated rat ileum preparation ([1]; 10^-6 M, isolated rat ileum): caused the preparation to relax | Antagonism of the post-synaptic 5HT receptor in vitro (in words) ([1]; in vitro, summary statement): does not antagonise the post-synaptic 5HT receptor in vitro | Potency Ratio (imipramine = 1.0) 5-Hydroxytryptamine [2]: 10.0 | Inhibition of 5-hydroxytryptamine uptake (in words) [2]: potent inhibitors of 5HT uptake | Effect on exploratory behaviour (in words) (mice): virtually without effect | CNS depression / signs of sedation (in words) (mice (CF-1); mouse, in vivo): does not induce marked CNS depression in animals | Lowest Dose to induce effect: Decreased activity (mice (CF-1); mouse, in vivo, po, 120 min): 400 mg/kg p.o. | Lowest Dose to induce effect: Slight weakness (mice (CF-1); mouse, in vivo, po, 120 min): 400 mg/kg p.o. | BP (systolic blood pressure) (hypertensive rats [3]; [6]): 90 % control | HR (heart rate) (hypertensive rats [3]; [6]): 101 % control | BP (systolic blood pressure) (hypertensive rats [3]; [7]): 102 % control | HR (heart rate) (hypertensive rats [3]; [7]): 98 % control | BP (systolic blood pressure) (hypertensive rats [3]; [8]): 106 % control | HR (heart rate) (hypertensive rats [3]; [8]): 84 % control | Reduction of blood pressure (in words) (hypertensive rats [3]): without significant activity; also recorded: does not induce marked CNS depression in animals or significantly reduce the blood pressure of hypertensive rats | Potency Ratio (imipramine = 1.0) Noradrenaline [4]: 0.06 | Inhibition of noradrenaline uptake (in words) [4]: weak inhibitors of noradrenaline uptake | Anti-hypertensive activity (in words) (hypertensive rats [5]): moderate activity

O=C(NC(=O)c1ccccc1)NC1CCN(CCc2c[nH]c3ccccc23)CC1 [Compound II, 1-benzoyl-3-[1-(2-[3-indolyl]ethyl)piperid-4-yl]urea]
5HT antagonism: effect on responses of isolated rat ileum to 5-hydroxytryptamine ([1]; 10^-6 M, isolated rat ileum): non-competitive blockade | Potency Ratio (imipramine = 1.0) 5-Hydroxytryptamine [2]: 8.0 | Inhibition of 5-hydroxytryptamine uptake (in words) [2]: potent inhibitors of 5HT uptake | Effect on exploratory behaviour (in words) (mice): marked reduction of exploratory behaviour | CNS depression / signs of sedation (in words) (mice (CF-1); animals (mice), qualitative): induced signs of sedation at doses considerably lower than those of compound I required to induce a similar effect | Lowest Dose to induce effect: Ataxia (mice (CF-1); [9]): 127 mg/kg p.o. | Lowest Dose to induce effect: Catalepsy (mice (CF-1); [9]): 400 mg/kg p.o. | Lowest Dose to induce effect: Decreased activity (mice (CF-1); [9]): 4.0 mg/kg p.o. | Lowest Dose to induce effect: Decreased respiration (mice (CF-1); [9]): 400 mg/kg p.o. | Lowest Dose to induce effect: Ptosis (mice (CF-1); [9]): 40 mg/kg p.o. | BP (systolic blood pressure) (hypertensive rats [3]; [10]): 64 % control | HR (heart rate) (hypertensive rats [3]; [10]): 109 % control | BP (systolic blood pressure) (hypertensive rats [3]; [11]): 82 % control | HR (heart rate) (hypertensive rats [3]; [11]): 96 % control | BP (systolic blood pressure) (hypertensive rats [3]; [12]): 99 % control | HR (heart rate) (hypertensive rats [3]; [12]): 97 % control | BP (systolic blood pressure) (hypertensive rats [3]; [13]): 49 % control | HR (heart rate) (hypertensive rats [3]; [13]): 119 % control | BP (systolic blood pressure) (hypertensive rats [3]; [14]): 52 % control | HR (heart rate) (hypertensive rats [3]; [14]): 104 % control | BP (systolic blood pressure) (hypertensive rats [3]; [15]): 79 % control | HR (heart rate) (hypertensive rats [3]; [15]): 97 % control | BP (systolic blood pressure) (hypertensive rats [3]; [6]): 51 % control | HR (heart rate) (hypertensive rats [3]; [6]): 105 % control | BP (systolic blood pressure) (hypertensive rats [3]; [7]): 51 % control | HR (heart rate) (hypertensive rats [3]; [7]): 90 % control | BP (systolic blood pressure) (hypertensive rats [3]; [8]): 62 % control | HR (heart rate) (hypertensive rats [3]; [8]): 96 % control | Reduction of blood pressure (in words) (hypertensive rats [3]): marked reduction of blood pressure | Potency Ratio (imipramine = 1.0) Noradrenaline [4]: 0.2 | Inhibition of noradrenaline uptake (in words) [4]: weak inhibitors of noradrenaline uptake | Anti-hypertensive activity (in words) (hypertensive rats [5]): marked activity

COc1ccc2[nH]cc(CN3CCC(NC(=O)NC(=O)c4ccccc4)CC3)c2c1 [Example 2, 1-[1-(5-Methoxyindol-3-ylmethyl)piperid-4-yl]-3-benzoylurea]
Potency Ratio (imipramine = 1.0) 5-Hydroxytryptamine [2]: 3.2 | Potency Ratio (imipramine = 1.0) Noradrenaline [4]: inactive

O=C(NC(=O)c1cccs1)NC1CCN(Cc2c[nH]c3ccccc23)CC1 [Example 3, 1-[1-(Indol-3-ylmethyl)piperid-4-yl]-3-(2-thenoyl)-urea]
Potency Ratio (imipramine = 1.0) 5-Hydroxytryptamine [2]: 7.8 | Potency Ratio (imipramine = 1.0) Noradrenaline [4]: 0.19

Cc1[nH]c2ccccc2c1CN1CCC(NC(=O)NC(=O)c2ccccc2)CC1 [Example 4, 1-Benzoyl-3-[1-([2-methylindol-3-yl]methyl)piperid-4-yl]urea]
Potency Ratio (imipramine = 1.0) 5-Hydroxytryptamine [2]: 0.8 | Potency Ratio (imipramine = 1.0) Noradrenaline [4]: 0.16

O=C(NC(=O)c1ccccc1)NC1CCN(Cc2c[nH]c3ccc(O)cc23)CC1 [Example 5, 1-Benzoyl-3-[1-([5-hydroxyindol-3-yl]methyl)piperid-4-yl]urea]
Potency Ratio (imipramine = 1.0) 5-Hydroxytryptamine [2]: 12.3 | Potency Ratio (imipramine = 1.0) Noradrenaline [4]: 0.2

COc1ccc(C(=O)NC(=O)NC2CCN(Cc3c[nH]c4ccccc34)CC2)cc1 [Example 6, 3-(4-methoxybenzoyl)-1-(1-[indol-3-ylmethyl]piperid-4-yl)urea]
Potency Ratio (imipramine = 1.0) 5-Hydroxytryptamine [2]: 5.0 | Potency Ratio (imipramine = 1.0) Noradrenaline [4]: 0.06

O=C(NC(=O)c1ccc(F)cc1)NC1CCN(Cc2c[nH]c3ccccc23)CC1 [Example 8, 1-(4-Fluorobenzoyl)-3-(1-[indol-3-ylmethyl]piperid-4-yl)urea]
Potency Ratio (imipramine = 1.0) 5-Hydroxytryptamine [2]: 1.04 | Potency Ratio (imipramine = 1.0) Noradrenaline [4]: 0.1

O=C(NC(=S)NC1CCN(Cc2c[nH]c3ccccc23)CC1)c1ccccc1 [Example 10, 1-[1-(Indol-3-ylmethyl)piperid-4-yl]-3-benzoylthiourea]
Potency Ratio (imipramine = 1.0) 5-Hydroxytryptamine [2]: 6.5

COc1cccc(C(=O)NC(=O)NC2CCN(Cc3c[nH]c4ccccc34)CC2)c1 [Example 11, 3-(3-Methoxybenzoyl)-1-(1-[indol-3-ylmethyl]piperid-4-yl)urea]
Potency Ratio (imipramine = 1.0) 5-Hydroxytryptamine [2]: 2.7
